Results reported in PMC5350466 (mBio, 2017).
pKi: −log10 of the molar value. Values after ≈ are worked out from the molar mass of the structure shown.

What was measured:
BcnB = test: In vitro binding of Nile red to BcnB; set-up: species or system Burkholderia cenocepacia; details: 1.5 µM BcnB vs 1.5 µM BcnA
Protocol: In vitro binding assays were performed as previously described ([23]), with a few modifications. Purified BCNs were prepared in phosphate-buffered saline (PBS, pH 7.4). Phospholipids and Nile red were prepared in DMSO. […] All spectra were corrected for background fluorescence determined from probe-into-buffer titrations. Fluorescence was measured with a Cary Eclipse fluorescence spectrophotometer (Varian) set at an excitation wavelength (λex) specific for each probe, as follows: Nile red, 550 nm; BODIPY phospholipids, 500 nm for fatty acyl BODIPY-labeled phosphocholine and 505 nm for head group BODIPY-labeled phosphoethanolamine. The emission spectrum for each probe was collected across the following wavelengths (λem): Nile red, 590 to 750 nm; BODIPY phospholipids, 510 to 665 nm. The background-corrected binding fluorescence with each probe was fitted to a one-site binding model as previously described for human AGP ([23]). The equilibrium binding affinity constant for the probe-BCN complex (Kd), the probe concentration needed to achieve half-maximum binding at equilibrium, was determined by nonlinear least-squares regression analysis of the binding isotherms with GraphPad Prism v 5.0 software (GraphPad Software, Inc.).

[1] = target: Burkholderia cenocepacia BcnA (BCAL3311) (Burkholderia cenocepacia); test: other; competition with Nile red, PBS
ΔbcnA pbcnA = test: MIC by E test; assay type: cell-based, Burkholderia cenocepacia; details: 24 h
ΔbcnA pbcnA1 (Pa) = test: MIC by E test; assay type: cell-based, Burkholderia cenocepacia; details: 24 h
ΔbcnA pbcnA2 (Pa) = test: MIC by E test; assay type: cell-based, Burkholderia cenocepacia; details: 24 h
ΔbcnA pbcnA3 (Pa) = test: MIC by E test; assay type: cell-based, Burkholderia cenocepacia; details: 24 h
ΔbcnA pbcnA (MTb) = assay type: cell-based, Burkholderia cenocepacia
[2] = target: Burkholderia cenocepacia BcnB (BCAL3310) (Burkholderia cenocepacia); test: SEC-MALS; proteins diluted to 1 mg/ml in 20 mM Tris (pH 7.5)-100 mM NaCl

Row | Compound | MIC by Etest, ΔbcnA pbcnA (ΔbcnA pbcnA) [µg/mL] | MIC by Etest, ΔbcnA pbcnA1 (Pa) (ΔbcnA pbcnA1 (Pa)) [µg/mL] | MIC by Etest, ΔbcnA pbcnA2 (Pa) (ΔbcnA pbcnA2 (Pa)) [µg/mL] | MIC by Etest, ΔbcnA pbcnA3 (Pa) (ΔbcnA pbcnA3 (Pa)) [µg/mL] | MIC by Etest, ΔbcnA pbcnA (MTb) (ΔbcnA pbcnA (MTb)) [µg/mL] | further results
1 | CCN(CC)c1ccc2nc3c4ccccc4c(=O)cc-3oc2c1 [Nile red] |  |  |  |  |  | affinity of BcnB binding to Nile red, fold lower than that of BcnA (BcnB): ~ 20 fold
2 | polymyxin B |  |  |  |  |  | pKi [1]: 3.17
3 | PmB nonapeptide |  |  |  |  |  | pKi [1]: 2.29
4 | O=C(O)c1cn(C2CC2)c2cc(N3CCNCC3)c(F)cc2c1=O [Cipro, ciprofloxacin] | 4 (≈ 12.1 µM) | 4 (≈ 12.1 µM) | 4 (≈ 12.1 µM) | 4 (≈ 12.1 µM) | 4 (≈ 12.1 µM) | 
5 | Burkholderia cenocepacia BcnB (BCAL3310) (natural protein) |  |  |  |  |  | stoichiometry N [2]: 2
6 | CC(C)(O/N=C(\C(=O)N[C@@H]1C(=O)N2C(C(=O)[O-])=C(C[n+]3ccccc3)CS[C@H]12)c1csc(N)n1)C(=O)O [Ceftazidime, ceftazidime] | 8 (≈ 14.6 µM) | 8 (≈ 14.6 µM) | 8 (≈ 14.6 µM) | 8 (≈ 14.6 µM) | 8 (≈ 14.6 µM) | 
7 | CO[C@H]1/C=C/O[C@@]2(C)Oc3c(C)c(O)c4c(O)c(c(/C=N/N5CCN(C)CC5)c(O)c4c3C2=O)NC(=O)/C(C)=C\C=C\[C@H](C)[C@H](O)[C@@H](C)[C@@H](O)[C@@H](C)[C@H](OC(C)=O)[C@@H]1C [Rifampicin, rifampin] | ≥ 64 | ≥ 64 | 32 (≈ 38.9 µM) | ≥ 64 | ≥ 64 | 
